These results are taken from patent US20250282797A1, “CRYSTALLINE FORM OF FGFR4 INHIBITOR AND USE THEREOF” (CSPC ZHONGQI PHARMACEUTICAL TECHNOLOGY (SHIJIAZHUANG) CO., …, priority 2022, published 2025).

A value given as a limit tells only on which side of the number the result lay.

The target in one data set is FGFR4 (Homo sapiens, UniProt P22455). Description: FGFR4 kinase activity inhibition assay (Caliper mobility shift). The data set is classed as biochemical. How it is done: 1. FGFR4 Kinase Activity Inhibition Assay
The FGFR4 protein kinase activity was determined by using the Caliper mobility shift assay technology. The compound was dissolved in DMSO and then diluted with a kinase buffer, and 5 μL of the compound (10% DMSO) at a 5-fold final reaction concentration was added to a 384-well plate. 10 μL of a 2.5-fold enzyme (FGFR4) solution was added, and then the mixture was incubated at room temperature for 10 min. 10 μL of a 2.5-fold substrate (FAM-labeled peptide and ATP) solution was added. The mixture was incubated at 28° C. for 30-60 min, and then 25 μL of a terminating solution was added to terminate the reaction. Conversion rate data were read on Caliper EZ Reader II (Caliper Life Sciences). The conversion rate was converted into inhibition data date (% inhibition rate=(max−sample conversion rate)/(max−min)×100), wherein max referred to the conversion rate of the DMSO control, and min referred to the conversion rate of the enzyme-free control. The concentration and inhibition rate of the compound were used as the abscissa and ordinate to plot the curve, and the XLFit Excel Add-in version 4.3.1 software was used to fit the curve and calculate the IC50 value.

The test system of another data set is Huh7 cell. Description: Inhibition assay on Huh-7 tumor cell proliferation (CTG). In kind it is cell-based. To be noted: Homo sapiens, 72 h or 168 h drug treatment. How it is done: 2. Inhibition Assay of Compound on Huh-7 Tumor Cell Proliferation
An Huh7 cell suspension was adjusted to 5×10e4 cells/mL or 2×10e4 cells/mL with DMEM+2 mM Glutamine+10% FBS medium. The cell suspension (100 μL) was added to each well of a 96-well cell culture plate at a final cell concentration of 5000 cells/well (72 h) or 2000 cells/well (168 h). The test compound was dissolved in DMSO as a 10 mmol stock solution. Compounds at 200× final concentration were prepared using the stock solution and DMSO, and 3×serial dilutions were prepared and diluted 20-fold with the medium. Finally, 10 μL of the corresponding 10-fold solution was added to each well of each cell strain, a single well for each drug concentration. […] After 72 h or 168 h of drug treatment, 100 μL of a CTG solution which was pre-melted and equilibrated to room temperature was added to each well according to CTG operation instructions, and the solution was mixed well using a microplate shaker for 2 min, left to stand at room temperature for 10 min, and measured for chemiluminescence signal values using an EnSpire plate reader. The cell survival rate was calculated using the following formula: (Vsample−Vblank)/(Vvehicle control−Vblank)×100%, wherein Vsample was the reading of the drug treatment group, Vvehicle control was the average value of the solvent control group, and Vblank was the average value of the blank control well. […]

Data set [1] can be described thus: Pharmacokinetic study in rats. To be noted: rat. The data set is classed as in vivo, SD rats. From the text: Test Example 6: Pharmacokinetic Study of Compound of Formula B in Rats
Assay drug: the compound of formula B obtained in Preparation Example 1.
Instrument: LC-MS/MS-13 (TQ5500, Triple quad), with the operation software of Xcalibur2.0.7 (Thermo Fisher Scientific, USA); LC-10ADvp liquid chromatography system (Shimadzu, Japan); Shimadzu LC-20AD liquid chromatography pump; Shimadzu CBM-20A system controller; Shimadzu CTO-20A column oven; and SIL-20AC autosampler (Shimadzu, Japan). Chromatographic column: Agilent Zorbax SB-CN 3.5 u 100×2.1 mm; column temperature: 40° C.; mobile phase A: 0.1% aqueous formic acid solution; mobile phase B: a 0.1% solution of formic acid in acetonitrile; flow rate: 0.60 mL/min. The gradient elution was performed as follows: from 0 to 0.5 min, the mobile phase B was increased from 1% to 90%; from 0.5 to 1.2 min, 90% of the mobile phase B was maintained; starting from 1.21 min, the mobile phase B was changed back to 1%; and elution was stopped at 1.60 min.
Animals: 6 male SD rats were supplied by Shanghai Sippe-Bk Lab Animal Co., Ltd. The body weight range was 180-220 g. After purchase, the rats were bred in the laboratory of the experimental animal center for 2 days for later use. The rats were fasted 10-14 h before administration and 4 h after administration, and given ad libitum access to water during the assay. The rats were randomly divided into two groups, with 3 rats in each group. One group was intravenously injected, and the other group was intragastrically administered.
Preparation of intragastric administration solution: the compound of formula B (4.85 mg) was precisely weighed out, and a mixed aqueous solution (9.70 mL) containing 0.5% methylcellulose and 0.4% Tween-80 was added, followed by sonication at room temperature to prepare a 0.5 mg/mL suspension. Preparation of intravenous injection solution: the compound of formula B (2.79 mg) was precisely weighed out, and DMSO (21 μL), PEG200 (2.79 mL), and normal saline (4.164 mL) were added to prepare a 0.4 mg/mL solution.
Blood was collected in the intragastric administration group about 0.25 h before administration and 0.25 h, 0.5 h, 1 h, 1.5 h, 2 h, 4 h, 6 h, 8 h, 12 h, and 24 h after administration. Blood was collected in the intravenous administration group about 0.25 h before administration and 0.083 h, 0.25 h, 0.5 h, 0.75 h, 1 h, 2 h, 4 h, 8 h, 12 h, and 24 h after administration. The blood was collected from the jugular vein or other venipuncture at 0.25 mL/time point and anticoagulated with EDTA-K2 or EDTA-K3. The collected blood was placed on the ice. After the blood samples were collected, plasma was separated by centrifugation (centrifugation conditions: 6800 g/min, 6 min, 2-8° C.). The collected plasma samples were stored in a refrigerator at −80° C. for testing prior to analysis.
The compound of the formula B was accurately weighed out and formulated into different concentrations, and quantitative analysis was performed on a mass spectrometer to establish a standard curve. The concentration of the compound of formula B in the plasma described above was then measured to obtain the concentrations of the compound of formula B at different time points. All the measured data were collected and processed by relevant software, and pharmacokinetic parameters (mainly including kinetic parameters Tmax, T1/2, Cmax, AUC0-t, etc.) were calculated by adopting a statistical moment method. […]

The mark [2] stands for this setting: male, SD, plasma, iv, intravenously injected, 2.0 mg/kg.
The mark [3] stands for this setting: male, SD, plasma, po, intragastrically administered, 5 mg/kg.

Chain of FGFR4 (P22455 22-802): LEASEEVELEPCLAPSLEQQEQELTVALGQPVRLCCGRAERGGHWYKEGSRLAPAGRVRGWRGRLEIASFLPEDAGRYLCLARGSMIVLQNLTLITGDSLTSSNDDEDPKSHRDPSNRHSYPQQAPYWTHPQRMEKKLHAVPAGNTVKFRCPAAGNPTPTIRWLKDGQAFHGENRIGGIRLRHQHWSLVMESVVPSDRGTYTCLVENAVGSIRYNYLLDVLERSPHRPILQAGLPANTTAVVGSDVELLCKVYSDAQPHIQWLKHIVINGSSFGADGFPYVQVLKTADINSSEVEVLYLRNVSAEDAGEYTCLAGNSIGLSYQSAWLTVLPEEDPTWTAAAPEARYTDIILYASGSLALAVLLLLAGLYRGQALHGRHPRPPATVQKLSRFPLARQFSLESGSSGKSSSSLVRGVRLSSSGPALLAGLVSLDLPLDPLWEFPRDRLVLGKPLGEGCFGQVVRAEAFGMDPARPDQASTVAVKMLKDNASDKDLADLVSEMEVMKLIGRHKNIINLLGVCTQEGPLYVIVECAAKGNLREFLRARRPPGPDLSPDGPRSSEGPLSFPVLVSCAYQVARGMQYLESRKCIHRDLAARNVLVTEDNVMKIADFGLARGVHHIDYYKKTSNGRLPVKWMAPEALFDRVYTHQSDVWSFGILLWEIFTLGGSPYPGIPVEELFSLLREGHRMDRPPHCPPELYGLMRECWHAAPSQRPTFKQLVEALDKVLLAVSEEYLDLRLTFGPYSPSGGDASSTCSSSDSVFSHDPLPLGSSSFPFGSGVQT

Usually IC50 stands for the point on the concentration scale where inhibition reaches its midpoint. As usually defined, the AUC(0-t) is exposure summed from dosing to a finite time, without extrapolation to infinity. High values mean high exposure, low ones low exposure. In general, clearance refers to the volume of plasma or blood freed of the substance per unit of time. The low end stands for a low capacity for elimination, the high end for a high capacity for elimination. By half-life is commonly meant the time in which the quantity being followed falls by half. Read a low half-life as rapid decline. What is called bioavailability is the share of a dose that reaches the circulation, judged against a reference dose that is usually intravenous. A word on the Cmax: it is the highest concentration seen after dosing. For `N#Cc1cnc(NC(=O)N2CCCc3cc(CN4CCN5CCC[C@H]5C4=O)c(C=O)nc32)cc1NC1CC1` [compound of formula B], the half-maximal inhibitory concentration (IC50) on FGFR4 is < 5 nM. Also, the IC50 in the data set on Huh7 cell is < 10 nM. In data set [1] (setting [2]), this molecule showed an AUC(0-t) of 3980 ng·h/mL, a clearance of 8.63 mL/min/kg and a half-life of 1.88 h. Also, in data set [1] (male, SD, plasma, oral, intragastric 5 mg/kg vs intravenous 2.0 mg/kg, read-out: absolute bioavailability), the bioavailability was determined as 48.6%. In data set [1] (setting [3]), the exposure AUC(0-t) was 4840 ng·h/mL, the Cmax worked out at 1220 ng/mL and the half-life was 1.95 h. Moreover, the Tmax in data set [1] (male, SD, plasma, po, intragastrically administered, 5 mg/kg, read-out: time at which the plasma concentration reached the peak value (Tmax)) stood at 2.67 h. Besides, the volume distribution in data set [1] (intravenously injected, 2.0 mg/kg) amounted to 0.883 L/kg.
